These results are taken from patent publication US9434763B2, “Derivatives of pyridinone as inhibitors for tissue transglutaminase” (ZEDIRA GMBH, priority 2012, dated 2016).

SMILES strings stand for the structures.

This assay has as its target T1, His tagged recombinant human tissue transglutaminase (His6-rh-TG2) (Homo sapiens, UniProt P21980).
T1 construct: purchased Zedira T002
T1 sequence (P21980 1-687): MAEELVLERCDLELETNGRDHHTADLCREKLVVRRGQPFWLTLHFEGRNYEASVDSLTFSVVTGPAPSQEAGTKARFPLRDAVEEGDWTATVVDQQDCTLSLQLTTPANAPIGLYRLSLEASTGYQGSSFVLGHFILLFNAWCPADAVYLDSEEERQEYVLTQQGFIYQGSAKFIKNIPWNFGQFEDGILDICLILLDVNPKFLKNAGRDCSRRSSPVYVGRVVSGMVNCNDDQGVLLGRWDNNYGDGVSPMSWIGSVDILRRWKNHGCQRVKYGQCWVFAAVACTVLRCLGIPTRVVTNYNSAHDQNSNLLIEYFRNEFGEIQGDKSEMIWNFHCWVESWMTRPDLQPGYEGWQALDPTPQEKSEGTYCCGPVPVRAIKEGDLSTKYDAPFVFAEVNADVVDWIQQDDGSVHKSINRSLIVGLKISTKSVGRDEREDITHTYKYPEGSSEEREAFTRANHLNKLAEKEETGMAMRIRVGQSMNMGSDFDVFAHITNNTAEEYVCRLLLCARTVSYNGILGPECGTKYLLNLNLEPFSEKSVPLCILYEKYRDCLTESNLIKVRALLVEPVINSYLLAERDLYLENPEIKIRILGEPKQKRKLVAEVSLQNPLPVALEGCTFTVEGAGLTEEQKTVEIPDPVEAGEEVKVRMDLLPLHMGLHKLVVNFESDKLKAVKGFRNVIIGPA
Description: Inactivation of human tissue transglutaminase, fluorescence assay with Abz-APE(CAD-DNP)QEA-OH. It counts as biochemical. To be noted: substrate Abz-APE(CAD-DNP)QEA-OH, 37° C., pH=7.5. As for the experimental part:
General Method for Inactivation of Human Tissue Transglutaminase
250 μg lyophilized His tagged recombinant human tissue transglutaminase (His6-rh-TG2, Zedira product T002) are reconstituted by adding 150 μl water (resulting buffer 50 mM NaH2PO4, 150 mM NaCl, pH=8.0).
A 10 mM inhibitor stock solution in DMSO is prepared and is diluted with buffer (50 mM Tris-HCl, 10 mM CaCl2, 5 mM DTT, pH=7.5) each to the twentyfold of the concentration desired in the preparation (but at least 1/50 dilution resulting in a 2% DMSO concentration).
900 μl of an assay-solution consisting of 55.56 mM Tris, 11.11 mM CaCl2, 0.11% PEG8000, 5.56 mM DTT, 5.56 mM glycine methyl ester and 50 μM Abz-APE(CAD-DNP)QEA-OH, (Zedira product A102; patent No.: EP 1781807B1), pH=7.5 are added to a cuvette and heated in a measuring cell of a spectrophotometer to 37° C. 50 μl of the particular inhibitor solution are added to this solution (resulting in a concentration of less than 0.2% DMSO in the mixture).
7 μl of the transglutaminase solution reconstituted above are diluted with 51 μl buffer (50 mM Tris, 100 mM NaCl, 5 mM DTT, pH=7.5). 50 μl of this enzyme solution (10 μg His6-rhTG2) are added to the assay-solution containing the particular inhibitor concentration. It is incubated 5 min at 37° C. before measuring starts (λexc=313 nm and λem=418 nm, t=15 to 30 min).
The evaluation of the resulting enzyme activity is done using the slope of the straight line obtained by the increase in fluorescence.
To determine the non-inhibited enzyme activity, DMSO instead of inhibitor stock solution is used. IC50 values are determined by plotting the resulting enzyme activity against the logarithm of the inhibitor concentration. IC50 is defined as the concentration of inhibitor resulting in 50% of enzyme activity.
As a reminder, the IC50 is the point on the concentration scale where inhibition reaches its midpoint. Regarding `CCOC(=O)/C=C/CC[C@H](NC(=O)CCC(=O)O)C(=O)Nc1cccn(CC(=O)NCc2ccc(C(F)(F)F)cc2)c1=O` [A37, (S,E)-4-(7-Ethoxy-1,7-dioxo-1-(2-oxo-1-(2-oxo-2-(4-(trifluoromethyl)benzylamino)ethyl)-1,2-dihydropyridin-3-ylamino)hept-5-en-2-ylamino)-4-oxobutanoic acid], the IC50 stood at 0.34 µM.
As for `CC(=O)N[C@@H](CC/C=C/C(=O)OCc1ccccc1)C(=O)Nc1cccn(CC(=O)NCCC(C)C)c1=O` [A78, (S,E)-Benzyl 6-acetamido-7-(1-(2-(isopentylamino)-2-oxoethyl)-2-oxo-1,2-dihydropyridin-3-ylamino)-7-oxohept-2-enoate], the IC50 was 0.627 µM.
For the molecule `CCOC(=O)/C=C/CC[C@H](NC(C)=O)C(=O)Nc1cccn(CC(=O)NC(C)C(C)C)c1=O` (stereo partly drawn) [A55, (6S,E)-Ethyl 6-acetamido-7-(1-(2-(3-methylbutan-2-ylamino)-2-oxoethyl)-2-oxo-1,2-dihydropyridin-3-ylamino)-7-oxohept-2-enoate], the IC50 is 0.153 µM.
With `CCC(CC)CNC(=O)Cn1cccc(NC(=O)[C@H](CC/C=C/C(=O)OC)NC(=O)c2ccc3c(c2)C(=O)OC32c3ccc(N(C)C)cc3Oc3cc(N(C)C)ccc32)c1=O` [A71, (S,E)-Methyl 6-(3′,6′-bis(dimethylamino)-3-oxo-3H-spiro[isobenzofuran-1,9′-xanthene]-5-ylcarboxamido)-7-(1-(2-(2-ethylbutylamino)-2-oxoethyl)-2-oxo-1,2-dihydropyridin-3-ylamino)-7-oxohept-2-enoate] the figure was 0.097 µM; with `CCOC(=O)/C=C/CC[C@H](NC(C)=O)C(=O)Nc1cccn(CC(=O)NCCN(C)C)c1=O` [A27, (S,E)-Ethyl 6-acetamido-7-(1-(2-(2-(dimethylamino)ethylamino)-2-oxoethyl)-2-oxo-1,2-dihydropyridin-3-ylamino)-7-oxohept-2-enoate], 5.2 µM.
For `CCOC(=O)/C=C/CC[C@H](NC(=O)CCC(=O)O)C(=O)Nc1cccn(CC(=O)N[C@@H](CC(C)C)C(=O)OC)c1=O` [A32, 4-((S,E)-7-Ethoxy-1-(1-(2-((S)-1-methoxy-4-methyl-1-oxopentan-2-ylamino)-2-oxoethyl)-2-oxo-1,2-dihydropyridin-3-ylamino)-1,7-dioxohept-5-en-2-ylamino)-4-oxobutanoic acid], the IC50 is 0.194 µM.
In the case of `CCOC(=O)/C=C/CC[C@H](NC(C)=O)C(=O)Nc1cccn(CC(=O)N[C@@H](CC(C)C)C(=O)OC)c1=O` [A31, (S,E)-Ethyl 6-acetamido-7-(1-(2-((S)-1-methoxy-4-methyl-1-oxopentan-2-ylamino)-2-oxoethyl)-2-oxo-1,2-dihydropyridin-3-ylamino)-7-oxohept-2-enoate], the IC50 came out at 0.124 µM.
Take `CCOC(=O)/C=C/CC[C@H](NC(C)=O)C(=O)Nc1cccn(CC(=O)NCC(C)CC)c1=O` (stereo partly drawn) [A50, (6S,E)-Ethyl 6-acetamido-7-(1-(2-(2-methylbutylamino)-2-oxoethyl)-2-oxo-1,2-dihydropyridin-3-ylamino)-7-oxohept-2-enoate]: the half-inhibitory concentration (IC50) is 0.119 µM.
Regarding `CCC(CC)CNC(=O)Cn1cccc(NC(=O)[C@H](CC/C=C/C(=O)OC)NC(=O)c2ccccc2N)c1=O` [A70, (S,E)-Methyl 6-(2-aminobenzamido)-7-(1-(2-(2-ethylbutylamino)-2-oxoethyl)-2-oxo-1,2-dihydropyridin-3-ylamino)-7-oxohept-2-enoate 2,2,2-trifluoroacetate], the IC50 came to 0.081 µM.
Consider `CCOC(=O)/C=C/CC[C@H](NC(C)=O)C(=O)Nc1cccn(CC(=O)NCCN2CCCC2)c1=O` [A46, (S,E)-Ethyl 6-acetamido-7-oxo-7-(2-oxo-1-(2-oxo-2-(2-(pyrrolidin-1-yl)ethylamino)ethyl)-1,2-dihydropyridin-3-ylamino)hept-2-enoate], for which the IC50 was 3.3 µM.
In the case of `CCOC(=O)/C=C/CC[C@H](NC(=O)c1cc(C(F)(F)F)cc(C(F)(F)F)c1)C(=O)Nc1cccn(CC(=O)NCCC(C)C)c1=O` [A17, (S,E)-Ethyl 6-(3,5-bis(trifluoromethyl)benzamido)-7-(1-(2-(isopentylamino)-2-oxoethyl)-2-oxo-1,2-dihydropyridin-3-ylamino)-7-oxohept-2-enoate], the IC50 was 0.063 µM.
With `CCOC(=O)/C=C/CC[C@H](NC(C)=O)C(=O)Nc1cccn(CC(=O)N[C@H](C(=O)OC)C(C)C)c1=O` [A57, (S,E)-Ethyl 6-acetamido-7-(1-(2-((S)-1-methoxy-3-methyl-1-oxobutan-2-ylamino)-2-oxoethyl)-2-oxo-1,2-dihydropyridin-3-ylamino)-7-oxohept-2-enoate], the IC50 amounted to 0.084 µM.
With `CCOC(=O)/C=C/CC[C@H](NC(C)=O)C(=O)Nc1ccc(C)n(CC(=O)NCCC(C)C)c1=O` [A4, (S,E)-Ethyl 6-acetamido-7-(1-(2-(isopentylamino)-2-oxoethyl)-6-methyl-2-oxo-1,2-dihydropyridin-3-ylamino)-7-oxohept-2-enoate] the figure was 0.119 µM; with `CCOC(=O)/C=C/CC[C@H](NC(=O)CCC(=O)O)C(=O)Nc1cccn(CC(=O)NCC(C)CC)c1=O` (stereo partly drawn) [A51, 4-((2S,E)-7-Ethoxy-1-(1-(2-(2-methylbutylamino)-2-oxoethyl)-2-oxo-1,2-dihydropyridin-3-ylamino)-1,7-dioxohept-5-en-2-ylamino)-4-oxobutanoic acid], 0.166 µM; with `CCC(CC)CNC(=O)Cn1cccc(NC(=O)[C@H](CC/C=C/C(=O)OC)NC(=O)C(C)N)c1=O` (stereo partly drawn) [A68, (6S,E)-Methyl 6-(2-aminopropanamido)-7-(1-(2-(2-ethylbutylamino)-2-oxoethyl)-2-oxo-1,2-dihydropyridin-3-ylamino)-7-oxohept-2-enoate 2,2,2-trifluoroacetate], 0.053 µM.
Turning to `CCOC(=O)/C=C/CC[C@H](NS(=O)(=O)c1ccc(O)c(C(=O)O)c1)C(=O)Nc1cccn(CC(=O)NCCC(C)C)c1=O` [A23, (S,E)-5-(N-(7-Ethoxy-1-(1-(2-(isopentylamino)-2-oxoethyl)-2-oxo-1,2-dihydropyridin-3-ylamino)-1,7-dioxohept-5-en-2-yl)sulfamoyl)-2-hydroxybenzoic acid], the IC50 came to 0.475 µM.
Take `CCOC(=O)/C=C/CC[C@H](NC(=O)c1ccccc1)C(=O)Nc1cccn(CC(=O)NCCC(C)C)c1=O` [A10, (S,E)-Ethyl 6-benzamido-7-(1-(2-(isopentylamino)-2-oxoethyl)-2-oxo-1,2-dihydropyridin-3-ylamino)-7-oxohept-2-enoate]: the IC50 was determined as 0.073 µM.
Regarding `CCOC(=O)/C=C/CC[C@H](NC(=O)CCC(=O)O)C(=O)Nc1cccn(CC(=O)NCc2ccccc2C(F)(F)F)c1=O` [A44, (S,E)-4-(7-Ethoxy-1,7-dioxo-1-(2-oxo-1-(2-oxo-2-(2-(trifluoromethyl)benzylamino)ethyl)-1,2-dihydropyridin-3-ylamino)hept-5-en-2-ylamino)-4-oxobutanoic acid], the IC50 was 0.24 µM.
Consider `CCOC(=O)/C=C/CC[C@H](NS(=O)(=O)c1ccccc1)C(=O)Nc1cccn(CC(=O)NCCC(C)C)c1=O` [A22, (S,E)-Ethyl 7-(1-(2-(isopentylamino)-2-oxoethyl)-2-oxo-1,2-dihydropyridin-3-ylamino)-7-oxo-6-(phenylsulfonamido)hept-2-enoate], for which the IC50 is 0.133 µM.
Consider `CCC(CC)CNC(=O)Cn1cccc(NC(=O)[C@@H](CC/C=C/C(=O)OC)NC(=O)c2cncn2C)c1=O` [A76, (R,E)-Methyl 7-(1-(2-(2-ethylbutylamino)-2-oxoethyl)-2-oxo-1,2-dihydropyridin-3-ylamino)-6-(1-methyl-1H-imidazole-5-carboxamido)-7-oxohept-2-enoate], for which the IC50 amounted to 54.7 µM.
Take `CCOC(=O)/C=C/CC[C@H](NC(C)=O)C(=O)Nc1cccn(CC(=O)N2CCCC(C)C2)c1=O` (stereo partly drawn) [A52, (6S,E)-Ethyl 6-acetamido-7-(1-(2-(3-methylpiperidin-1-yl)-2-oxoethyl)-2-oxo-1,2-dihydropyridin-3-ylamino)-7-oxohept-2-enoate]: the IC50 is 0.7 µM.
